Among the test systems are KM-20L2; SK-OV-3; HT-29; EKVX; DMS-273; UACC-62; ACHN; HOP-62; U-251; T47D; SNB-78; SN12C; PC-3; DMS-114; SK-MEL-28; COLO 205; XF498; K562; NCI-H522; MDA-MB-231.
Holding throughout (experiment): NCI tumour cell line growth inhibition, 48 h

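Test compounds were applied to cells in 96-well plates for 48 hours at 5 doses. At the GI50, growth is halved.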 Active and inactive are the calls of the source. Cut-off read from the data, not from the text of the source: active = GI50 up to about 1.1 µM and inactive = higher.

Regarding `CN1CCN(CCCN2c3ccccc3Sc3ccc(C(F)(F)F)cc32)CC1`, the GI50 with KM-20L2 was 2.27 µM (inactive); in the assay on SK-OV-3 it was 14.6 µM (inactive); in the assay on HT-29, 2.44 µM (inactive); with EKVX, 14.5 µM (inactive); in the assay on DMS-273 it was 6.65 µM (inactive); in the assay with UACC-62, 2.1 µM (inactive). Besides, the GI50 in the assay on ACHN is 11.9 µM (inactive); with HOP-62, 13.1 µM (inactive); in the assay on U-251, 8.34 µM (inactive); in the assay with T47D, 10 µM (inactive); with SNB-78 it was 15.7 µM (inactive); with SN12C, 12.2 µM (inactive). Moreover, the GI50 in the assay on PC-3 was 4.72 µM (inactive); with DMS-114, 10 µM (inactive); with SK-MEL-28, 1.82 µM (inactive).
As for `CC1=NN2C(c3ccc(C)cc3)=CSC2=NC(C)(C)C1`, the GI50 in the assay on KM-20L2 was > 100 µM (inactive); in the assay on COLO 205, > 100 µM (inactive); in the assay with SK-OV-3, > 100 µM (inactive); with HT-29, > 100 µM (inactive); in the assay on XF498, 54 µM (inactive); with EKVX it was > 100 µM (inactive). Further, the GI50 in the assay with UACC-62 was > 100 µM (inactive); with ACHN, > 100 µM (inactive); in the assay with K562, 61.5 µM (inactive); in the assay with HOP-62 it was > 100 µM (inactive); with U-251, > 100 µM (inactive); in the assay on SNB-78, > 100 µM (inactive). The GI50 in the assay on SN12C is > 100 µM (inactive); in the assay on DMS-114, 71 µM (inactive); in the assay on NCI-H522, > 100 µM (inactive); in the assay on SK-MEL-28 it was > 100 µM (inactive).
As to `CCN(C(C)=N)c1ccccc1`, the GI50 in the assay on KM-20L2 was > 100 µM (inactive); in the assay with COLO 205 it was > 100 µM (inactive); with SK-OV-3, > 100 µM (inactive); with XF498, > 100 µM (inactive); in the assay on EKVX, 52.8 µM (inactive); in the assay on UACC-62, > 100 µM (inactive). For the same molecule, the GI50 in the assay on ACHN is 61.5 µM (inactive); in the assay on K562, 43.6 µM (inactive); in the assay with HOP-62, 66.4 µM (inactive); in the assay with U-251, > 100 µM (inactive); with SNB-78 it was > 100 µM (inactive); with SN12C, 70 µM (inactive). Further, the GI50 with DMS-114 was 36.5 µM (inactive); in the assay on NCI-H522, 50.2 µM (inactive); in the assay on SK-MEL-28 it was 68.4 µM (inactive).
With `CC(=O)NNc1nc(C)c(C(=O)NNC(=O)C(=O)Nc2ccc(Cl)c([N+](=O)[O-])c2)s1`, the GI50 is > 100 µM (inactive) in the assay on KM-20L2; > 100 µM (inactive) in the assay with COLO 205; > 100 µM (inactive) in the assay on SK-OV-3; > 100 µM (inactive) with HT-29; 42.6 µM (inactive) in the assay on XF498; > 100 µM (inactive) in the assay on EKVX. Moreover, the GI50 with UACC-62 is 58.9 µM (inactive); in the assay with ACHN, 41.1 µM (inactive); in the assay with K562 it was 26.2 µM (inactive); in the assay on HOP-62 it was > 100 µM (inactive); in the assay on U-251, 50.9 µM (inactive); with SNB-78 it was 45.8 µM (inactive). The GI50 is 71.8 µM (inactive) in the assay on SN12C, 46.9 µM (inactive) with DMS-114, 26.2 µM (inactive) in the assay with NCI-H522 and > 100 µM (inactive) in the assay on SK-MEL-28.
As to `Cc1ccc(C)c(NC(=O)C(=O)CC(=O)c2cccc3ccccc23)c1`, the GI50 with KM-20L2, in the assay on COLO 205, in the assay with SK-OV-3, with HT-29, with EKVX and in the assay with DMS-273 was > 100 µM (inactive) each time. The GI50 in the assay with UACC-62, in the assay on ACHN, with K562, with HOP-62, with U-251 and with SNB-78 was > 100 µM (inactive) each time. Further, the GI50 with SN12C, in the assay on DMS-114, in the assay on NCI-H522 and in the assay with SK-MEL-28 was > 100 µM (inactive) throughout.
In the case of `CNS(=O)(=O)NNS(=O)(=O)c1ccc(F)cc1`, the GI50 with KM-20L2, in the assay on COLO 205, with HT-29, in the assay with XF498, in the assay on EKVX and with DMS-273 was > 100 µM (inactive) in each case. In addition, the GI50 in the assay with UACC-62, in the assay on ACHN, in the assay with K562, in the assay with HOP-62, with U-251 and in the assay with DMS-114 was > 100 µM (inactive) throughout. The GI50 with NCI-H522 is > 100 µM (inactive).
As to `CCC(=O)OC[n+]1ccc2c(C)c3[nH]c4ccc(OC)cc4c3c(C)c2c1`, the GI50 was 0.117 µM (active) in the assay with KM-20L2; 0.0906 µM (active) with COLO 205; 0.0568 µM (active) with HT-29; 1.22 µM (inactive) in the assay with XF498; 0.0485 µM (active) in the assay on ACHN; 0.132 µM (active) with K562. Further, the GI50 with U-251 was 0.0547 µM (active); in the assay with SNB-78, 0.693 µM (active); with SN12C, < 0.01 µM (active); with DMS-114, 0.104 µM (active); in the assay with SK-MEL-28, 0.759 µM (active).
As for `CN(C)CCNC(=O)c1cccc2nc3c(Cl)cccc3nc12`, the GI50 in the assay with KM-20L2 was 5.52 µM (inactive); in the assay on COLO 205, 3.75 µM (inactive); with SK-OV-3 it was 17.3 µM (inactive); with HT-29 it was 3.18 µM (inactive); in the assay on XF498, 2.92 µM (inactive); with EKVX, 8.61 µM (inactive). The GI50 with DMS-273 was 5.09 µM (inactive); in the assay on UACC-62 it was 2.02 µM (inactive); in the assay with ACHN, 3.13 µM (inactive); in the assay with K562 it was 2.31 µM (inactive); in the assay with HOP-62 it was 5.66 µM (inactive); in the assay on U-251 it was 5.18 µM (inactive). Also, the GI50 in the assay with SN12C was 4.52 µM (inactive); in the assay with DMS-114, 3.57 µM (inactive); in the assay with NCI-H522, 14.3 µM (inactive); with SK-MEL-28, 4.7 µM (inactive).
With `O=C(O)CC/C(=N\Nc1nsc2ccccc12)c1ccc(Cl)cc1`, the GI50 in the assay on KM-20L2 was 41.1 µM (inactive); in the assay with COLO 205, 43.4 µM (inactive); with SK-OV-3, 32.6 µM (inactive); in the assay on HT-29, 29.8 µM (inactive); in the assay on MDA-MB-231, 35.6 µM (inactive); in the assay with EKVX, 69.5 µM (inactive). Also, the GI50 was 20 µM (inactive) in the assay with DMS-273; 19.8 µM (inactive) in the assay on UACC-62; 28.2 µM (inactive) in the assay with ACHN; 23 µM (inactive) in the assay on K562; 23.5 µM (inactive) with HOP-62; 18 µM (inactive) in the assay with U-251. Besides, the GI50 in the assay on T47D is 31.2 µM (inactive); in the assay on SNB-78 it was 31.6 µM (inactive); in the assay on SN12C, 26 µM (inactive); in the assay on PC-3, 20.9 µM (inactive); with DMS-114 it was 25 µM (inactive); in the assay on NCI-H522 it was 34.5 µM (inactive). Moreover, the GI50 in the assay on SK-MEL-28 was 17.5 µM (inactive).
As to `COC(=O)C1N=CSCC1(C)O` (configuration not stated), the GI50 with KM-20L2, in the assay on COLO 205, in the assay with SK-OV-3, with HT-29, in the assay on XF498 and in the assay on EKVX was > 100 µM (inactive) each time. In addition, the GI50 with UACC-62, in the assay on ACHN, in the assay on K562, in the assay on HOP-62, with SNB-78 and with SN12C was > 100 µM (inactive) each time. The GI50 in the assay with DMS-114 and with SK-MEL-28 was > 100 µM (inactive) in each case.
As for `O=C(/C=C\c1cccc2ccccc12)c1ccc(Cl)cc1Cl`, the GI50 in the assay on KM-20L2 is 31 µM (inactive); with COLO 205, 22.4 µM (inactive); with SK-OV-3 it was > 100 µM (inactive); with HT-29 it was 17.9 µM (inactive); in the assay with EKVX, 36.5 µM (inactive); in the assay with DMS-273, 18.8 µM (inactive). Besides, the GI50 is 16.7 µM (inactive) with UACC-62; 18.6 µM (inactive) with ACHN; 18.9 µM (inactive) with K562; > 100 µM (inactive) in the assay with HOP-62; 16.4 µM (inactive) in the assay on U-251; 20.3 µM (inactive) in the assay on SNB-78. The GI50 in the assay on SN12C is > 100 µM (inactive); in the assay with DMS-114 it was 14.8 µM (inactive); in the assay with NCI-H522, 19.2 µM (inactive); in the assay with SK-MEL-28 it was 18.5 µM (inactive).
For the molecule `O=[N+]([O-])c1nccn1CC(O)c1ccccc1` (configuration not stated), the GI50 in the assay with KM-20L2, in the assay with COLO 205, in the assay on SK-OV-3, in the assay with HT-29, in the assay with XF498 and with EKVX was > 100 µM (inactive) throughout. The GI50 with DMS-273, in the assay on UACC-62, in the assay with ACHN, in the assay on K562, in the assay on HOP-62 and in the assay on U-251 was > 100 µM (inactive) throughout. Also, the GI50 in the assay with SN12C, in the assay with DMS-114, in the assay with NCI-H522 and with SK-MEL-28 was > 100 µM (inactive) in each case.
In the case of `Cn1nnc2c(C(N)=O)ncn2c1=O` [TEMOZOLOMIDE], the GI50 was > 100 µM (inactive) with KM-20L2; > 100 µM (inactive) in the assay with COLO 205; 58.7 µM (inactive) with SK-OV-3; > 100 µM (inactive) in the assay on HT-29; > 100 µM (inactive) in the assay with XF498; > 100 µM (inactive) in the assay on MDA-MB-231. Further, the GI50 in the assay on EKVX was > 100 µM (inactive); with UACC-62 it was > 100 µM (inactive); with ACHN it was > 100 µM (inactive); with K562 it was 75.9 µM (inactive); in the assay with HOP-62, > 100 µM (inactive); in the assay with U-251, > 100 µM (inactive). The GI50 in the assay on T47D, in the assay on SNB-78, with SN12C, in the assay with PC-3, with DMS-114 and in the assay with NCI-H522 was > 100 µM (inactive) in each case. For the same molecule, the GI50 in the assay with SK-MEL-28 was > 100 µM (inactive).
